Experimental data taken from ChEMBL document CHEMBL1159227, “Piperogalin, a new prenylated diphenol from Peperomia galioides” (1995).
Activity calls are given as the source filed them. No cut-off for these calls is given here.

Legend:
Trypanosoma cruzi = assay: Antitrypanosomal activity against Trypanosoma cruzi Y trypomastigotes assessed as lysis of trypomastigotes at 250 ug/ml after 24 hrs at 4 degC; format: functional
Leishmania braziliensis [1] = assay: Antileishmanial activity against Leishmania braziliensis 2903 promastigotes assessed as total lysis of parasites at 100 ug/ml after 24 hrs at 28 degC; format: functional, organism-based
Leishmania braziliensis [2] = assay: Antileishmanial activity against Leishmania braziliensis 2903 promastigotes assessed as total lysis of parasites at 50 ug/ml after 24 hrs at 28 degC; format: functional, organism-based
Leishmania donovani [3] = assay: Antileishmanial activity against Leishmania donovani PP75 promastigotes assessed as total lysis of parasites at 50 ug/ml after 24 hrs at 28 degC; format: functional, organism-based
Leishmania amazonensis [4] = assay: Antileishmanial activity against Leishmania amazonensis promastigotes assessed as total lysis of parasites at 50 ug/ml after 24 hrs at 28 degC; format: functional, organism-based
Leishmania braziliensis [5] = assay: Antileishmanial activity against Leishmania braziliensis 2903 promastigotes assessed as total lysis of parasites at 25 ug/ml after 24 hrs at 28 degC; format: functional, organism-based
Leishmania donovani [6] = assay: Antileishmanial activity against Leishmania donovani PP75 promastigotes assessed as total lysis of parasites at 25 ug/ml after 24 hrs at 28 degC; format: functional, organism-based
Leishmania amazonensis [7] = assay: Antileishmanial activity against Leishmania amazonensis promastigotes assessed as total lysis of parasites at 25 ug/ml after 24 hrs at 28 degC; format: functional, organism-based
Leishmania braziliensis [8] = assay: Antileishmanial activity against Leishmania braziliensis 2903 promastigotes assessed as immobilized parasites at 10 ug/ml after 24 hrs at 28 degC; format: functional, organism-based
Leishmania donovani [9] = assay: Antileishmanial activity against Leishmania donovani PP75 promastigotes assessed as immobilized parasites at 10 ug/ml after 24 hrs at 28 degC; format: functional, organism-based
Leishmania amazonensis [10] = assay: Antileishmanial activity against Leishmania amazonensis promastigotes assessed as immobilized parasites at 10 ug/ml after 24 hrs at 28 degC; format: functional, organism-based
Leishmania donovani [11] = assay: Antileishmanial activity against Leishmania donovani PP75 promastigotes assessed as total lysis of parasites at 100 ug/ml after 24 hrs at 28 degC; format: functional, organism-based
Leishmania amazonensis [12] = assay: Antileishmanial activity against Leishmania amazonensis H142 promastigotes assessed as total lysis of parasites at 100 ug/ml after 24 hrs at 28 degC; format: functional, organism-based
Leishmania braziliensis [13] = assay: Antileishmanial activity against Leishmania braziliensis 2903 promastigotes assessed as lysis of parasites at 10 ug/ml after 24 hrs at 28 degC; format: functional
Leishmania donovani [14] = assay: Antileishmanial activity against Leishmania donovani PP75 promastigotes assessed as lysis of parasites at 10 ug/ml after 24 hrs at 28 degC; format: functional
Leishmania amazonensis [15] = assay: Antileishmanial activity against Leishmania amazonensis promastigotes assessed as lysis of parasites at 10 ug/ml after 24 hrs at 28 degC; format: functional
Leishmania braziliensis [16] = assay: Antileishmanial activity against Leishmania braziliensis 2903 promastigotes assessed as immobilized parasites at 100 ug/ml after 24 hrs at 28 degC; format: functional, organism-based

SMILES	Activity (Trypanosoma cruzi)	Activity (Leishmania braziliensis [1])	Activity (Leishmania braziliensis [2])	Activity (Leishmania donovani [3])	Activity (Leishmania amazonensis [4])	Activity (Leishmania braziliensis [5])	Activity (Leishmania donovani [6])	Activity (Leishmania amazonensis [7])	Activity (Leishmania braziliensis [8])	Activity (Leishmania donovani [9])	Activity (Leishmania amazonensis [10])	Activity (Leishmania donovani [11])	Activity (Leishmania amazonensis [12])	Activity (Leishmania braziliensis [13])	Activity (Leishmania donovani [14])	Activity (Leishmania amazonensis [15])	Activity (Leishmania braziliensis [16])
CC(C)=CCC/C(C)=C/CC/C(C)=C/Cc1c(O)cc(C)cc1O [GRIFOLIN]	68%	Active	Active	Active	Active	Active	Active	Active	Active	Active	Active	Active	Active				
CC(C)=CCC/C(C)=C/Cc1c(O)cc(C)c(CC=C(C)C)c1O [PIPEROGALIN]	42%	Active		Active	Active	Active	Active	Active				Active	Active	>90%	>90%	>90%	
CC(C)=CCC/C(C)=C/CC/C(C)=C/Cc1c(O)cc(C)c(C(=O)O)c1O [GRIFOLIC ACID]	0%											Active	Active				Active
